{"source": "patent US20240287136A1", "about": "“PHARMACEUTICAL COMPOSITION AND THE USE THEREOF IN THE TREATMENT OF AUTOIMMUNE DISEASES” (Singapore Health Services Pte. Ltd., priority 2016, published 2024)", "key": {"[1]": {"system": "regulatory T cell (Treg) (CD4+CD25++CD127−)", "assay": "Treg functionality: suppression of Teff proliferation (CFSE dilution)", "format": "in vivo, human", "conditions": "SEQ ID NO. 1 clinical responders at Tend, n=3; mean and s.e.m.; placebo clinical non-responders —76.21+/−3.665", "description": "FIG. 3. Effector and regulatory T cell function differ according to clinical response: a. effector T cells (Teff) (CD4+CD127+) at beginning of the trial (TO) and end of the study (Tend) were compared for PD-1 expression in both SEQ ID NO. 1 clinical responders and placebo clinical non-responders by FACS. b. FACS-sorted Teffwere analyzed for IL-17 and for RORC. Teff were stained intracellularly with IL-17A, and analyzed by FACS. c. regulatory T cell (Treg) (CD4+CD25++CD127−) frequency (% of PBMC) was determined in SEQ ID NO. 1—treated clinical responders by FACS. […] Values are the mean and s.e.m. d. Treg functionality in SEQ ID NO. […] (placebo clinical non-responders vs SEQ ID NO. 1 clinical responders, —76.21+/−3.665 vs 8.443+/−4.677, n=2 vs 3, t-test p0.0010). […]\nFIG. 5. […] Treg ability to suppress Teff proliferation was determined by CFSE dilution. […] T(x)=Probability binning. % PD-1+Treg is expressed as percentage of the total Treg population (insets in both panels). d. […] The average pSTAT5 expression per cell for anti-PD-1 treatment, as determined by the average integral density per unit area, was calculated using ImageJ (Rasband, W. S., ImageJ, http://rsb.info.nih.gov/ij/, 1997-2009). […] Total Treg, PD-1+Treg and PD-1− Treg from clinical responders (n=S) at Tend were sorted and RNA expression of CTLA-4, FoxP3, IL-10 and TGF-β was measured by TaqMan. Data are expressed as 2(−dCT)×100 of GAPDH. […]"}, "[2]": {"system": "PBMCs", "assay": "TaqMan gene expression of regulatory molecules in PBMCs incubated in vitro with SEQ ID NO. 1", "format": "cell-based, human", "conditions": "T0 PBMCs incubated with 10 mg/ml SEQ ID NO. 1 for 48 hours", "description": "PBMCs from T0 were incubated in vitro with 10 mg/ml SEQ ID NO. 1 for 48 hours, and TaqMan was performed as described earlier. Data are expressed as 2(−dCT)×100 of GAPDH. PD-1, 0.3595+/−0.1033 vs 0.9310+/−0.1961, n=S, p0.0327 PD-L1, 0.1400+/−0.05308 vs 1.080+/−0.1926, n=6, p0.0005 CTLA-4, 0.2667+/−0.07313 vs 4.809+/−2.606, n=6, p0.0588 Foxp3, 0.2678+/−0.1267 vs 2.329+/−0.9527, n=6, p0.0422 P values were obtained by t-test."}, "[3]": {"system": "Treg (CD4+CD25++CD127−) cells", "assay": "PD-1 expression on Treg by FACS after incubation with SEQ ID NO. 1", "format": "cell-based, human", "conditions": "after incubation with 10 mg/ml of SEQ ID NO. 1", "description": "(§1) FIG. 5. PD-1 actively contributes to Treg function: a. Treg ability to suppress Teff proliferation was determined by CFSE dilution. A representative clinical responder is depicted. Treg cells were sorted by FACS according to the phenotype depicted in the table and incubated with Teff in the presence of 10 mg/ml of SEQ ID NO. 1. b. […] 1. c. […] 1. Line with white area under the curve depicts T0, grey area depicts Tend. T(x)=Probability binning. % PD-1+Treg is expressed as percentage of the total Treg population (insets in both panels). d. […] PD-1+Treg cells were stained by FACS after a 5-day incubation with Teff and APC in the presence or absence of anti-PD1 antibody. Details in methods. Line with white area under the curve depicts anti-PD1 treated, grey area depicts untreated. T(x)=Probability binning. e. pSTAT5 was examined in Treg via immunofluorescent microscopy. Cells, staining and slides were prepared according to procedures outlined in the methods. The average pSTAT5 expression per cell for anti-PD-1 treatment, as determined by the average integral density per unit area, was calculated using ImageJ (Rasband, W. S., ImageJ, http://rsb.info.nih.gov/ij/, 1997-2009). Untreated vs. anti-PD-1 treated: 38.79 vs. 33.07, standard deviation 4.27 vs. […], t-test p<0.0001. f. […] Teff were stained by FACS after a 5-day incubation in the presence or absence of anti-PD1 antibody. Details in methods. Line with white area under the curve depicts anti-PD1 treated, grey area depicts untreated. T(x)=Probability binning. g. Total Treg, PD-1+Treg and PD-1− Treg from clinical responders (n=S) at Tend were sorted and RNA expression of CTLA-4, FoxP3, IL-10 and TGF-β was measured by TaqMan. Data are expressed as 2(−dCT)×100 of GAPDH. […] 1 clinical responders (18.99+/−3.412 vs 2.693+/−1.434, n=S p=0.0130)."}, "[4]": {"system": "PD-1+Treg and PD-1− Treg", "assay": "TaqMan RNA expression in sorted total, PD-1+ and PD-1− Treg of clinical responders", "format": "in vivo, human", "conditions": "SEQ ID NO. 1 clinical responders at Tend", "description": "as §1\nTo further characterize function of PD-1+Treg, mRNA was extracted from FACS-sorted CD4+/CD25++/CD127−total Treg, PD-1+Treg and PD-1-Treg and tested by qPCR for expression of various genes associated with Treg function."}, "[5]": {"format": "in vitro ADME", "conditions": "without a linker; data not shown", "description": "This is synthetically of less interest to a person skilled in the art since it usually involves multiple-step synthesis for making the peptide. In the presence of the linker, the peptide SEQ ID No: 1 and the antirheumatic drug can be administered in equal proportion because the linker protects the peptide from degradation and thus enhance the stability of the peptide."}, "[6]": {"conditions": "placebo clinical non-responders"}}, "note": "Ends that are not written are not given here.", "data": [{"substance": "QKRAAYDQYGHAAFE-NH2 [SEQ ID NO. 1]", "values": [{"measurement": "Treg functionality, % suppression of Teff proliferation", "setting": "[1]", "result": "8.443+/−4.677 % suppression"}, {"measurement": "CTLA-4 gene expression in PBMCs", "setting": "[2]; clinical responders", "result": "4.809+/−2.606 2(−dCT)×100 of GAPDH"}, {"measurement": "Foxp3 gene expression in PBMCs", "setting": "[2]; clinical responders", "result": "2.329+/−0.9527 2(−dCT)×100 of GAPDH"}, {"measurement": "PD-1 gene expression in PBMCs", "setting": "[2]; clinical responders", "result": "0.9310+/−0.1961 2(−dCT)×100 of GAPDH"}, {"measurement": "PD-L1 gene expression in PBMCs", "setting": "[2]; clinical responders", "result": "1.080+/−0.1926 2(−dCT)×100 of GAPDH"}, {"measurement": "CTLA-4 gene expression in PBMCs", "setting": "[2]; [6]", "result": "0.2667+/−0.07313 2(−dCT)×100 of GAPDH"}, {"measurement": "Foxp3 gene expression in PBMCs", "setting": "[2]; [6]", "result": "0.2678+/−0.1267 2(−dCT)×100 of GAPDH"}, {"measurement": "PD-1 gene expression in PBMCs", "setting": "[2]; [6]", "result": "0.3595+/−0.1033 2(−dCT)×100 of GAPDH"}, {"measurement": "PD-L1 gene expression in PBMCs", "setting": "[2]; [6]", "result": "0.1400+/−0.05308 2(−dCT)×100 of GAPDH"}, {"measurement": "PD-1+ Treg as percentage of total Treg", "setting": "[3]; clinical responder, T0", "result": 13.3, "unit": "%"}, {"measurement": "PD-1+ Treg as percentage of total Treg", "setting": "[3]; clinical responder, Tend", "result": 41, "unit": "%"}, {"measurement": "PD-1+ Treg as percentage of total Treg", "setting": "[3]; representative clinical non-responder, T0", "result": 15.5, "unit": "%"}, {"measurement": "PD-1+ Treg as percentage of total Treg", "setting": "[3]; representative clinical non-responder, Tend", "result": 12.7, "unit": "%"}, {"measurement": "CTLA-4, FoxP3 and IL-10 expression between the different subsets of Treg", "setting": "[4]", "result": "did not differ"}, {"measurement": "TGF-β gene expression in PD-1+Treg", "setting": "[4]", "result": "18.99+/−3.412 2(−dCT)×100 of GAPDH"}, {"measurement": "TGF-β gene expression in PD-1− Treg", "setting": "[4]", "result": "2.693+/−1.434 2(−dCT)×100 of GAPDH"}, {"measurement": "stability of the peptide upon ingestion", "setting": "[5]", "result": "prone to degradation upon ingestion"}]}]}
